{
  "source": "the supplement of paper PMC10307832",
  "assay_in_all_cases": "relative viability (nuclei count vs DMSO), 5 days (fraction); higher = more cells survive",
  "key": {"[1]": {"compound": "COC1=CC=C(C=C1)CN2C=CC3=C2C=C(C=C3)C(=O)NO + CC1(C)CCC(c2ccc(Cl)cc2)=C(CN2CCN(c3ccc(C(=O)NS(=O)(=O)c4ccc(N[C@H](CCN5CCOCC5)CSc5ccccc5)c(S(=O)(=O)C(F)(F)F)c4)cc3)CC2)C1 [Navitoclax] (partner 0.5 µM)", "how_it_was_run": "(§1)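 For relative viability, nuclei counts in treated wells were divided by those in vehicle wells. Lung cancer cell lines had been pin-tool dosed in 1536-well plates the day after seeding and cultured for 5 days, then fixed and stained in one step (final 0.05% Triton X-100, 1% formaldehyde, 1 ug/ml Hoechst) and imaged at 4×. Doses were one drug alone or a fixed anchor-drug dose plus five library-drug doses (not always all listed) in √10 steps, and values are duplicate-plate medians.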"}, "[2]": {"compound": "COC1=CC=C(C=C1)CN2C=CC3=C2C=C(C=C3)C(=O)NO + COc1cccc2cc(-c3nc([C@H]4CC[C@H](C(=O)O)CC4)n4ncnc(N)c34)[nH]c12 [OSI-027] (partner 0.5 µM)", "how_it_was_run": "as §1"}, "Veliparib + Navitoclax": {"compound": "C[C@]1(c2nc3c(C(N)=O)cccc3[nH]2)CCCN1 [Veliparib] + CC1(C)CCC(c2ccc(Cl)cc2)=C(CN2CCN(c3ccc(C(=O)NS(=O)(=O)c4ccc(N[C@H](CCN5CCOCC5)CSc5ccccc5)c(S(=O)(=O)C(F)(F)F)c4)cc3)CC2)C1 [Navitoclax] (partner 0.5 µM)", "how_it_was_run": "as §1"}, "Veliparib + Lapatinib": {"compound": "C[C@]1(c2nc3c(C(N)=O)cccc3[nH]2)CCCN1 [Veliparib] + CS(=O)(=O)CCNCc1ccc(-c2ccc3ncnc(Nc4ccc(OCc5cccc(F)c5)c(Cl)c4)c3c2)o1 [Lapatinib] (partner 2 µM)", "how_it_was_run": "as §1"}},
  "data": [
    {"cell line": "SW 1573", "values": [
      {"measurement": "relative viability", "setting": "[1]; first compound 0.253 µM", "value": 0.943},
      {"measurement": "relative viability", "setting": "[1]; first compound 0.8 µM", "value": 1.19},
      {"measurement": "relative viability", "setting": "[1]; first compound 2.53 µM", "value": 0.961},
      {"measurement": "relative viability", "setting": "[1]; first compound 8 µM", "value": 0.946},
      {"measurement": "relative viability", "setting": "[2]; first compound 0.253 µM", "value": 0.616},
      {"measurement": "relative viability", "setting": "[2]; first compound 0.8 µM", "value": 0.785},
      {"measurement": "relative viability", "setting": "[2]; first compound 2.53 µM", "value": 0.519},
      {"measurement": "relative viability", "setting": "[2]; first compound 8 µM", "value": 0.396},
      {"measurement": "relative viability", "setting": "Veliparib + Navitoclax; first compound 0.02 µM", "value": 1.02},
      {"measurement": "relative viability", "setting": "Veliparib + Navitoclax; first compound 0.06325 µM", "value": 0.934},
      {"measurement": "relative viability", "setting": "Veliparib + Navitoclax; first compound 0.2 µM", "value": 1.1},
      {"measurement": "relative viability", "setting": "Veliparib + Navitoclax; first compound 0.6325 µM", "value": 0.736},
      {"measurement": "relative viability", "setting": "Veliparib + Navitoclax; first compound 2 µM", "value": 0.93},
      {"measurement": "relative viability", "setting": "Veliparib + Lapatinib; first compound 0.02 µM", "value": 1.04},
      {"measurement": "relative viability", "setting": "Veliparib + Lapatinib; first compound 0.06325 µM", "value": 1.02},
      {"measurement": "relative viability", "setting": "Veliparib + Lapatinib; first compound 0.2 µM", "value": 0.929},
      {"measurement": "relative viability", "setting": "Veliparib + Lapatinib; first compound 0.6325 µM", "value": 1.05},
      {"measurement": "relative viability", "setting": "Veliparib + Lapatinib; first compound 2 µM", "value": 1.04}
    ]}
  ]
}
